{
  "source": "patent US7887827B2",
  "about": "“Use of malonomicin and analogs in fungicidal applications” (Dow AgroSciences LLC, priority 2006, dated 2011)",
  "assay_type_in_all_cases": "in vivo",
  "key": {"[1]": {"test_system": "Venturia inaequalis (VENTIN)", "test": "Curative test, Apple Scab (compound added 2 days after inoculation)", "settings": "curative at 200 ppm"}, "[2]": {"test_system": "Venturia inaequalis (VENTIN)", "test": "One day protectant (1 DP) test, Apple Scab", "settings": "0.1 percent Spraymate X77 + 0.1 percent ammonium sulfate"}, "[3]": {"test_system": "Puccinia recondita f. sp. tritici (PUCCRT)", "test": "Drop Line Test on wheat leaf, Brown Rust of Wheat", "settings": "Drop Line Test 0.5 μg/leaf, 2 microliter drop", "description": "Wheat (cultivar Monon) was grown in plastic pots (6.2 cm×8.75 cm) containing 50 percent mineral soil, 50 percent Metro-Mix 360 (W.R Grace and Co.) until the seedlings were 10-20 cm tall. These plants were then sprayed to runoff with the test compound at a rate of 200 ppm. After 24 hours the test plants were inoculated by spraying with an aqueous spore suspension of Puccinia recondita f. sp. tritici (PUCCRT). The plants were then transferred to a dew chamber for 24 hours, then to the greenhouse until disease developed on the untreated control plants. In Example 3, a Drop Line Test was used, wherein instead of spraying the plant to runoff, a 2 microliter drop was placed on the wheat leaf and observed for disease control."}},
  "data": [
    {"compound": "NC[C@@H]1NC(=O)C(C(=O)CC(NC(=O)[C@@H](N)CO)(C(=O)O)C(=O)O)=C1O", "note": "[Compound I, {[(2S)-2-amino-3-hydroxypropanoyl]amino}{2-[(5S)-5-(aminomethyl)-4-hydroxy-2-oxo-2,5-dihydro-1H-pyrrol-3-yl]-2-oxoethyl}malonic acid]", "values": [
      {"measurement": "VENTIN percent control of plant disease, curative", "setting": "[1]", "result": "++^α (++ = 75-100 percent control of plant disease)"},
      {"measurement": "VENTIN percent control of plant disease", "setting": "[2]; 50 ppm and 100 ppm", "result": "++ (++ = 75-100 percent control of plant disease)"},
      {"measurement": "VENTIN percent control of plant disease", "setting": "[2]; rate 200 ppm", "result": "+ (+ = 30-74 percent control of plant disease)"}
    ]},
    {"compound": "C[C@H](N)C(=O)NC(CC(=O)O)(CC(=O)C1=C(O)[C@H](CN)NC1=O)C(=O)O", "note": "(stereo partly shown) [Compound III]", "values": [
      {"measurement": "PUCCRT percent control of plant disease, Drop Line Test", "setting": "[3]", "result": "+ (+ = 30-74 percent control of plant disease)"}
    ]}
  ]
}
